# According to patent publication US8796271B2, “Heteroaryls and uses thereof” (Millennium Pharmaceuticals, Inc., priority 2010, dated 2014):
# Where two headings read alike, the source gives them in different places.
# Columns and labels:
# Format in all cases: biochemical
# PI3Kalpha = biological target: T1, PI3Kalpha (Homo sapiens, UniProt P42336); test: Human PI3K alpha enzyme assay (HTRF)
# T1 construct: His (N); host or cells: SF9 cells (baculovirus)
# From the text: (§1) The catalytic subunits of PI3Ks are cloned into either pDEST8 (p110 alpha) or pDEST10 (p110beta, p110delta, and p110gamma) as N-terminal His tagged fusion proteins using the Gateway system (Invitrogen, catalog #11804-010 for pDEST8 and 11806-015 for pDEST10). The sequences are verified before recombinant protein expression using the Baculovirus Expression System with Gateway® Technology. The accession numbers for the subunits are as follows:
# (§2) For expression of the p110 complexes, the p85 (MOI of 4) is co-infected with p110 alpha, beta, and delta respectively (1MOI) in SF9 cells and harvested at 60 hours post co-infection. P110 gamma was infected at 1 MOI and harvested at 60 hours post infection.
# (§3) For purification, PI3Ks are purified by Ni-NTA Agarose (Qiagen #30250) followed by Mono Q 10/100 GL (Ge Healthcare #17-5167-01). VPS34 is purified by Glutathione Sepharose 4 Fast Flow (GE Healthcare #17-5132-03) followed by HiTrap Q (GE Healthcare #17-1153-01).
# 1) Human PI3K Alpha Enzyme Assay Method
# (§4) 0.5 uL compounds in DMSO are added to wells of a 384 well microtitre plate (Corning 3575). At room temperature: 10 ul PI3K reaction buffer (50 mM Hepes, 5 mM DTT, 150 mM NaCl, 10 mM beta-glycerophosphate, 10 mM MgCl2, 0.25 mM sodium cholate and 0.001% CHAPS, pH 7.00) containing ATP (25 uM, Promega) is added followed immediately by 10 ul PI3K reaction buffer containing di-C8 PI(4,5)P2 (3.5 uM, CellSignals) and PI3Kalpha (0.4875 nM, Millennium Protein Sciences Group) and the mixture is incubated with shaking at room temperature for 30 minutes. Then 5 ul PI3K stop mix (50 mM Hepes, 5 mM DTT, 150 mM NaCl, 0.01% Tween-20, 15 mM EDTA and 25 nM biotin-PI(3,4,5)P3 (Echelon) is added to quench the reaction followed immediately by addition of 5 ul HTRF detection mix (50 mM Hepes, 5 mM DTT, 150 mM NaCl, 0.01% Tween-20, 40 mM KF, 10 nM GST:GRP-1 PH domain (Millennium Protein Sciences Group), 15 nM Streptavidin-XL (CisBio) and 0.375 nM anti-GST Eu++ antibody (CisBio) at pH 7.00). The plates are then incubated for 1 hour at room temperature with shaking and then read on a BMG PheraStar Plus reader.
# (§5) For the assay methods described above, test compound percent inhibition, at various concentrations, is calculated relative to control (DMSO and EDTA) treated samples. Compound concentration versus percent inhibition curves are fitted to generate IC50 values. One skilled in the art will appreciate that the values generated either as percentage inhibition at a single concentration or IC50 values are subject to experimental variation.
# PI3K delta = biological target: T2, PI3K delta (Homo sapiens, UniProt O00329); test: Human PI3K delta enzyme assay (HTRF)
# T2 construct: His (N); host or cells: SF9 cells (baculovirus)
# T2 sequence (O00329 whole entry): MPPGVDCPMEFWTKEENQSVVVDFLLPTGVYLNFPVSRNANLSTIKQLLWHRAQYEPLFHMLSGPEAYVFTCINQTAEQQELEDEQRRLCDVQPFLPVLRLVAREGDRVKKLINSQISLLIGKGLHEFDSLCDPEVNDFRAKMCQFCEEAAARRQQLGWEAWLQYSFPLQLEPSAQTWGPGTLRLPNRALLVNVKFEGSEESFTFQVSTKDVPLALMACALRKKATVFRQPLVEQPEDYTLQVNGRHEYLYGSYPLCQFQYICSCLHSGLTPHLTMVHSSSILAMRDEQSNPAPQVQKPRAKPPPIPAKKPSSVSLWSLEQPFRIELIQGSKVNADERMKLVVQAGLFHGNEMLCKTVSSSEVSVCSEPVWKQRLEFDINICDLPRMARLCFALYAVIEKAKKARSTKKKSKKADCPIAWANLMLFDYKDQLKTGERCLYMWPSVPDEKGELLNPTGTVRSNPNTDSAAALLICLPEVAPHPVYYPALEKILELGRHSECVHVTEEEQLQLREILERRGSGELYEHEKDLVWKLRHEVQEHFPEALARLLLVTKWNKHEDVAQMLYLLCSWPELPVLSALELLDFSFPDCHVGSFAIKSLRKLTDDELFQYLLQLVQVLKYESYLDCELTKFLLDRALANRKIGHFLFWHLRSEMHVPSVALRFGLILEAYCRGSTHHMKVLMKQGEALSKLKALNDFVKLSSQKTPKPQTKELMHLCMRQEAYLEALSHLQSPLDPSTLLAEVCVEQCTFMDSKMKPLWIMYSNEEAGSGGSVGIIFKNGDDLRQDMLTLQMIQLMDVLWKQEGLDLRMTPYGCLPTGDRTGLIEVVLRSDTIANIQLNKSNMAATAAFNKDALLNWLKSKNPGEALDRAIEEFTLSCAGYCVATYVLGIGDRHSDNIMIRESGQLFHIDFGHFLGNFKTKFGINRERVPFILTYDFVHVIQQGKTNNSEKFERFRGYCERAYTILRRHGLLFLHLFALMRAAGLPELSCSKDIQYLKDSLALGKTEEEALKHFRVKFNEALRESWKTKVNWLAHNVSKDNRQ
# T2 sequence (P27986 whole entry partner): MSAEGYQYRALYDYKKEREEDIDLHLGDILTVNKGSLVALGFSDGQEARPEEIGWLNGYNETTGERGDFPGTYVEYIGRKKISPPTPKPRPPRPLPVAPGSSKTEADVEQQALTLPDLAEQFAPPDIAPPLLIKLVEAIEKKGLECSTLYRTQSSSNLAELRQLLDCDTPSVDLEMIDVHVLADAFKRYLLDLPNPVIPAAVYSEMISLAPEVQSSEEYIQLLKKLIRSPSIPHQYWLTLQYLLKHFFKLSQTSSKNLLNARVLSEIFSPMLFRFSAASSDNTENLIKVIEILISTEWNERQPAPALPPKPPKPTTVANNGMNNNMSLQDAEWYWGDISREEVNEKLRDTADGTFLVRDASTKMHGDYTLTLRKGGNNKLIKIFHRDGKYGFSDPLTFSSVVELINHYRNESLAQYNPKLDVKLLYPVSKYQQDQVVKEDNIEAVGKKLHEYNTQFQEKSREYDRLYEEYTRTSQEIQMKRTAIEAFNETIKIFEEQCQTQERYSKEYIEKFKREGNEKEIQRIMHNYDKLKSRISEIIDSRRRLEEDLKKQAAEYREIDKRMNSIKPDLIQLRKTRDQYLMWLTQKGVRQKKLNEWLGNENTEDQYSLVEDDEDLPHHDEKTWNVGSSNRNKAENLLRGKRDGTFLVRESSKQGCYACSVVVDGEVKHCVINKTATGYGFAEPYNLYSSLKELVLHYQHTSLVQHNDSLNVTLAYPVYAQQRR
# From the text: as §1, §2, §3, §4
# (§6) 2) Human PI3K beta, delta and gamma isoforms are tested using the procedure described for PI3K alpha above but with the following changes: PI3K beta (5.25 nM), PI3K delta (0.75 nM) and PI3K gamma (5 nM). All isoforms supplied by Millennium Protein Science Group.
# as §5
# PI3K beta = biological target: T3, PI3K beta (Homo sapiens, UniProt P42338); test: Human PI3K beta enzyme assay (HTRF)
# T3 construct: His (N); host or cells: SF9 cells (baculovirus)
# T3 sequence (P42338 whole entry): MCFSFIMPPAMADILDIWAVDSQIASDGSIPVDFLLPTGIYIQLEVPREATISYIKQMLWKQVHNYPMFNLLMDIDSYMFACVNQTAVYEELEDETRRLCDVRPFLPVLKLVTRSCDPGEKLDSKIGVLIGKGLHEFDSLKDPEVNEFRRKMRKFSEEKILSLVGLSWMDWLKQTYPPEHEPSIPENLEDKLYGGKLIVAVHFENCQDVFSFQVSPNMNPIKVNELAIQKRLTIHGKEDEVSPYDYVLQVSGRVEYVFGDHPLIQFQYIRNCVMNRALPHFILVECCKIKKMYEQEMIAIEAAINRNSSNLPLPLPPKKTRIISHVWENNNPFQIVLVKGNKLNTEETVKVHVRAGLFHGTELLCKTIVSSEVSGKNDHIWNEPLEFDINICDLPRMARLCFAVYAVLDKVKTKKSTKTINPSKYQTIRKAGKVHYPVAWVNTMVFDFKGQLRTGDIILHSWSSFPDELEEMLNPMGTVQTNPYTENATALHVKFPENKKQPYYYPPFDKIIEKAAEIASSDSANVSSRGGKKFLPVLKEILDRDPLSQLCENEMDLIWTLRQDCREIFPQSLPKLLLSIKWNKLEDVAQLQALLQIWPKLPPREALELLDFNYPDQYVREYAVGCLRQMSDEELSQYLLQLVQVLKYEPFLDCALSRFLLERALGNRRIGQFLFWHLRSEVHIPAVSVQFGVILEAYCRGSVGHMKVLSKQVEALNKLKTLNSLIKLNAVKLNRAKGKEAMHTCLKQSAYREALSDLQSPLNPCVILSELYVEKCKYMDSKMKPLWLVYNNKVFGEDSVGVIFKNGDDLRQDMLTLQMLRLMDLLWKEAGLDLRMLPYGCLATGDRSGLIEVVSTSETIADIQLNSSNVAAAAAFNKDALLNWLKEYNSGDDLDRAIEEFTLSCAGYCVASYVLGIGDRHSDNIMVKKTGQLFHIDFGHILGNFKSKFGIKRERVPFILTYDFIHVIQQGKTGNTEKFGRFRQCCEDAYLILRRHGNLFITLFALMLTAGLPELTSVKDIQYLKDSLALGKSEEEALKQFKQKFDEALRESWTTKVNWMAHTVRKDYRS
# T3 sequence (P27986 whole entry partner): as the sequence (P27986 whole entry partner) above
# From the text: as §1, §2, §3, §4, §6, §5
# PI3K gamma = biological target: T4, PI3K gamma (Homo sapiens, UniProt P48736); test: Human PI3K gamma enzyme assay (HTRF)
# T4 construct: His (N); host or cells: SF9 cells (baculovirus)
# T4 sequence (P48736 whole entry): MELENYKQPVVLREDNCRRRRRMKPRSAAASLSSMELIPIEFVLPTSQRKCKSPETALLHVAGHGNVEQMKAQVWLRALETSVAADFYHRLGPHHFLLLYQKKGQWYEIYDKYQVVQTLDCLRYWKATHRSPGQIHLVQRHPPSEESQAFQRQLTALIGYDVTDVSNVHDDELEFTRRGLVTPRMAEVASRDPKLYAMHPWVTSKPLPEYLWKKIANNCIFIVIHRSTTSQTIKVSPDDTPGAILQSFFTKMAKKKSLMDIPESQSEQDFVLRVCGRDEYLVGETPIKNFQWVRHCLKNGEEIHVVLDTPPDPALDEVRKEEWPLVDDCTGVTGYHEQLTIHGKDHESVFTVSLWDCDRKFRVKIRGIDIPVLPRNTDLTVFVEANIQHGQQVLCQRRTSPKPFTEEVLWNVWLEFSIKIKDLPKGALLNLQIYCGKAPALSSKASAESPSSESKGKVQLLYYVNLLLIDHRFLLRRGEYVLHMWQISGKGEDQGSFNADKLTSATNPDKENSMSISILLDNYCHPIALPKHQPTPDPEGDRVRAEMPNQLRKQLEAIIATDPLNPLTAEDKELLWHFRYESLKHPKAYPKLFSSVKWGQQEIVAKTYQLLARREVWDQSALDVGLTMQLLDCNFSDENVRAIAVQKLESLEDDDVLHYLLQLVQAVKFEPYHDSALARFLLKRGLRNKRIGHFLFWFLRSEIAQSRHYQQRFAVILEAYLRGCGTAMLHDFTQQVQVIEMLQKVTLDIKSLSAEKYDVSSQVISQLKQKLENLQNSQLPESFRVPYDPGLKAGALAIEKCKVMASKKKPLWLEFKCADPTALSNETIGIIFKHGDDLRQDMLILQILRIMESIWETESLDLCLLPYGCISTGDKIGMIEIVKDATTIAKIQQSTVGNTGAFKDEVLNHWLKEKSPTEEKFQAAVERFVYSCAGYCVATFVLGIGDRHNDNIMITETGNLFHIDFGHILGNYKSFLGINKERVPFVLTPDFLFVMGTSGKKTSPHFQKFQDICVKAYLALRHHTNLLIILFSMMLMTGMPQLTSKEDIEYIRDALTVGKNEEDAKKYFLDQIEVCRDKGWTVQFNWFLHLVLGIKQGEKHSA
# From the text: as §1, §2, §3, §4, §6, §5
# VPS34 = biological target: T5, VPS34 (Homo sapiens, UniProt Q8NEB9); test: Human VPS34 enzyme assay (Adapta Universal Kinase Assay); conditions: 1 h; at a 1.0 μM concentration; read-out: VPS34 Percent Inhibition
# T5 construct: GST (N); host or cells: SF9 cells (baculovirus)
# Experimental: VPS34 (accession number GB:BC033004) is cloned into pDEST20-Thombin as N-terminal GST tagged fusion proteins using the Gateway system (Invitrogen, catalog #11804-013). The sequences are verified before recombinant protein expression using the Baculovirus Expression System with Gateway® Technology.
# For expression VPS34 was infected at 1MOI in SF9 cells and harvested 72 hours post infection.
# For purification, VPS34 is purified by Glutathione Sepharose 4 Fast Flow (GE Healthcare #17-5132-03) followed by HiTrap Q (GE Healthcare #17-1153-01).
# 3) VPS34 is assayed using Adapta™ Universal Kinase Assay Kit (Invitrogen).
# 4) Human VPS34 enzyme assay method
# 100 nL compounds in DMSO are added to wells of a 384 well microtitre plate (Greiner 780076). […] The plates are then incubated for 30 minutes at room temperature with shaking and then read on a BMG PheraStar Plus reader.
# For the assay methods described above, test compound percent inhibition, at various concentrations, is calculated relative to control (DMSO and EDTA) treated samples. […]
# [1] = at a 1.1 μM concentration, read-out: PI3Kα Percent Inhibition
# [2] = at a 1.0 μM concentration, read-out: PI3Kδ Percent Inhibition
# [3] = at a 1.1 μM concentration, read-out: PI3Kβ Percent Inhibition
# [4] = at a 1.0 μM concentration, read-out: PI3Kγ Percent Inhibition
# [5] = concentration not given, read-out: p110 alpha Percent Inhibition
# [6] = concentration not given, b1433 gives 1.0 μM for PI3K δ and γ, read-out: p110 delta Percent Inhibition
# [7] = concentration not given, read-out: p110 beta Percent Inhibition
# [8] = concentration not given, b1433 gives 1.0 μM for PI3K δ and γ, read-out: p110 gamma Percent Inhibition
# T1 sequence (P42336 whole entry): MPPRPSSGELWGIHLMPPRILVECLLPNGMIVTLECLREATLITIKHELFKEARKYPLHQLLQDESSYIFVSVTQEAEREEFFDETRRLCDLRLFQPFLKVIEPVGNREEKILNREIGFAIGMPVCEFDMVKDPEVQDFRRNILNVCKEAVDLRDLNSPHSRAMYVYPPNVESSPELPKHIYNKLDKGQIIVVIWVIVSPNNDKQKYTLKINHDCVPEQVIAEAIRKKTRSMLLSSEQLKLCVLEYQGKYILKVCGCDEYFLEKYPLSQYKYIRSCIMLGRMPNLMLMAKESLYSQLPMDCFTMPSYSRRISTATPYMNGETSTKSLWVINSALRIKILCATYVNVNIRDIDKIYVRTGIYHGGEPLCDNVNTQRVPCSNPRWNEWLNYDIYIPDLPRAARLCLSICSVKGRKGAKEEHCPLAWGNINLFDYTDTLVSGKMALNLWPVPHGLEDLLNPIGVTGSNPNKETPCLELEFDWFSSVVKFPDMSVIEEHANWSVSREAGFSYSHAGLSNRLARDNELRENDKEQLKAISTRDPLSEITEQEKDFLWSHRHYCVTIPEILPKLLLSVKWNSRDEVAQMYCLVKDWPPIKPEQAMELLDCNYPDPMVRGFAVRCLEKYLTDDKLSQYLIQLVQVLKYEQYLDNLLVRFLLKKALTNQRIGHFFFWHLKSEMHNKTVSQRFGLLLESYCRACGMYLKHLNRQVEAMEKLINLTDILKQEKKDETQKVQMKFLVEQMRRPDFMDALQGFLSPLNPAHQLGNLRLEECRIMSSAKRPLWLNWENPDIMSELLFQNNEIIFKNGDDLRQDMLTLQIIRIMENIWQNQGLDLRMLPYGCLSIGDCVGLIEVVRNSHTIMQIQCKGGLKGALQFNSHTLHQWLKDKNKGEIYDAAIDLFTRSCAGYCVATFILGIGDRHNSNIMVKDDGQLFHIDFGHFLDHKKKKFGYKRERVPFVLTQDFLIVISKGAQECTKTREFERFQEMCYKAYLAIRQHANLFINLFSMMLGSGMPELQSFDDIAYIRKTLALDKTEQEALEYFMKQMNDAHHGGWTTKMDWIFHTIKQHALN
# T1 sequence (P27986 whole entry partner): as the sequence (P27986 whole entry partner) above
SMILES,inhibition at 1.1 µM (PI3Kalpha; [1]),inhibition at 1 µM (PI3K delta; [2]),inhibition at 1.1 µM (PI3K beta; [3]),inhibition at 1 µM (PI3K gamma; [4]),inhibition at 1 µM (VPS34),inhibition at 1.1 µM (PI3Kalpha; [5]),inhibition at 1 µM (PI3K delta; [6]),inhibition at 1.1 µM (PI3K beta; [7]),inhibition at 1 µM (PI3K gamma; [8])
N#Cc1c(N2CCOCC2)sc(C(=O)O)c1Cc1ccc(OC(F)(F)F)cc1 [Compound 102],30%,38.1%,78%,6.8%,28.2%,–,–,–,–
N#Cc1c(N2CCOCC2)sc(C(=O)O)c1Cc1cc(F)c(F)cc1F [Compound 107],49%,87.3%,103%,20.2%,45.8%,–,–,–,–
OC(c1cc(Br)cs1)c1cc(-c2ccncc2)sc1-c1nnc[nH]1 (stereo not shown) [Compound 233],–,–,–,–,–,61%,74%,97%,28%
COc1cccc(C(O)c2cc(-c3ccncc3)sc2-c2nnc[nH]2)c1 (stereo not shown) [Compound 253],–,–,–,–,–,20%,27%,64%,2%
"NCc1c[nH]c(-c2sc(-c3ccncc3)nc2Cc2ccc(Cl)cc2)n1 [Compound 255, (2-(4-(4-chlorobenzyl)-2-(pyridin-4-yl)thiazol-5-yl)-1H-imidazol-4-yl)methanamine]",–,–,–,–,–,0%,39%,55%,5%
N#Cc1c(N2CCOCC2)sc(C(=O)O)c1Cc1ccc2ccc(F)cc2c1 [Compound 287],–,–,–,–,–,84%,–,109%,69%
N#Cc1c(N2CCOCC2)sc(C(=O)O)c1Cc1ccc2ccccc2c1F [Compound 293],–,–,–,–,–,98%,–,108%,78%
N#Cc1c(N2CCOCC2)sc(C(=O)O)c1Cc1cc2ccccc2cc1F [Compound 295],–,–,–,–,–,101%,–,111%,76%
N#Cc1c(N2CCOCC2)sc(C(=O)O)c1Cc1cc(F)c(Cl)cc1F [Compound 300],–,–,–,–,–,44%,–,105%,46%
N#Cc1c(N2CCOCC2)sc(C(=O)O)c1Cc1ccc2c(c1)CCCC2 [Compound 305],–,–,–,–,–,37%,–,106%,37%
N#Cc1c(N2CCOCC2)sc(C(N)=O)c1C(F)(F)c1ccc2ccccc2c1 [Compound 307],–,–,–,–,–,15%,–,84%,9%
N#Cc1c(N2CCOCC2)sc(C(=O)O)c1C(F)(F)c1ccc2ccccc2c1 [Compound 308],–,–,–,–,–,41%,–,106%,39%
N#Cc1c(N2CCOCC2)sc(C(=O)O)c1Cc1cc(F)c2ccccc2c1 [Compound 324],–,–,–,–,–,107%,–,118%,67%
COC(c1ccc2ccccc2c1)c1c(C(=O)O)sc(N2CCOCC2)c1C#N (stereo not shown) [Compound 337],–,–,–,–,–,14%,–,60%,11%
N#Cc1c(N2CCOCC2)sc(C(=O)O)c1Cc1ccc2c(F)cccc2c1 [Compound 343],–,–,–,–,–,84%,–,110%,67%
N#Cc1c(N2CCOCC2)sc(C(=O)O)c1C(F)c1ccc2ccccc2c1 (stereo not shown) [Compound 345],–,–,–,–,–,–,–,105%,62%
N#Cc1c(N2CCOCC2)sc(-c2nnn[nH]2)c1C(F)(F)c1ccc2ccccc2c1 [Compound 349],–,–,–,–,–,43%,–,108%,42%
"c1ccc2cc(Cc3nc(N4CCOCC4)sc3-c3nnn[nH]3)ccc2c1 [Compound 360, 4-[4-(2-naphthylmethyl)-5-(1H-tetrazol-5-yl)-1,3-thiazol-2-yl]morpholine]",–,–,–,–,–,30%,110%,106%,49%
